Common to all, as to assay: DTP human tumour cell line panel, 48 h
Experiment [1] concerns Hs-578T.
Experiment [2] has as its system TK-10.
The test system of experiment [3] is HCT-15.
Experiment [4] concerns SN12C.
Experiment [5] has as its system COLO 205.
For experiment [6], the system named is PC-3.
Experiment [7] relates to SK-OV-3.
For experiment [8], the system named is CAKI-1.
The subject of experiment [9] is OVCAR-8.
The subject of experiment [10] is NCI-H522.
Experiment [11] relates to KM12.
In experiment [12] the test system is K562.
Experiment [13] has as its system OVCAR-3.
Experiment [14] concerns BT-549.
Experiment [15] relates to NCI-H226.
Experiment [16] concerns OVCAR-4.
In experiment [17] the test system is SNB-75.
Experiment [18] concerns SW-620.
Experiment [19] relates to A498.
Experiment [20] relates to HOP-92.

Molecules are shown by their SMILES.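 Step 1: Grow cells in 96-well plates. Step 2: Expose to compound for 48 hours at 5 concentrations. Step 3: Interpolate endpoints linearly; if unreached, use highest concentration. Abbreviation: GI50, concentration required for 50% inhibition of growth.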 The source made the active and inactive calls. Cut-off read from the data, not from the text of the source: active = GI50 up to about 1.1 µM and inactive = higher. Bounds are passed on as bounds.

These results are taken from ChEMBL document CHEMBL1201862, “PubChem BioAssay data set” (2004).

Regarding `COc1ccc(N(C)S(=O)(=O)c2ccccc2)cc1`, the GI50 in [1] was > 100 µM (inactive); in [2] it was > 100 µM (inactive); in experiment [3] it was greater than 100 µM; in experiment [4], > 100 µM (inactive); in experiment [5] it was > 100 µM (inactive); in [6], 72.1 µM (inactive). The GI50 in [7] was > 100 µM (inactive); in experiment [8] it was > 100 µM (inactive); in experiment [9], > 100 µM (inactive); in experiment [10] it was > 100 µM (inactive); in [11] it was > 100 µM (inactive); in experiment [12], 28.5 µM (inactive). The GI50 in experiment [13], in [14], in experiment [15], in [16], in experiment [17] and in experiment [18] was > 100 µM (inactive) in each case.

Take `CCN1C(NCCO)=NS(=O)(=O)c2ccccc21`: the GI50 in experiment [1] is > 100 µM (inactive); in [19] it was > 100 µM (inactive); in experiment [2], > 100 µM (inactive); in experiment [3] it was greater than 100 µM; in experiment [4], > 100 µM (inactive); in experiment [5] it was > 100 µM (inactive). For the same compound, the GI50 in [6], in experiment [7], in experiment [8], in experiment [9], in [10] and in [11] was > 100 µM (inactive) each time. Moreover, the GI50 in [20], in experiment [12], in experiment [13], in experiment [14], in experiment [15] and in experiment [16] was > 100 µM (inactive) each time. Also, the GI50 in [18] is > 100 µM (inactive).

With `CCOc1ccc(C(=O)/C=C2/Nc3ccccc3N/C2=C/C(=O)c2ccc(OCC)cc2)cc1`, the GI50 in [1] is 37.6 µM (inactive); in experiment [19], > 100 µM (inactive); in [2], > 100 µM (inactive); in experiment [3], 96.4 µM; in experiment [4], > 100 µM (inactive); in [5], > 100 µM (inactive). For the same compound, the GI50 in [6], in [7], in [8], in [10], in [20] and in experiment [12] was > 100 µM (inactive) throughout. Besides, the GI50 was > 100 µM (inactive) in experiment [13]; > 100 µM (inactive) in experiment [14]; > 100 µM (inactive) in experiment [15]; 72.3 µM (inactive) in [16]; > 100 µM (inactive) in [18].

Take `O=C(OCC1CCCN2CCCCC12)c1cccnc1` (stereo unspecified): the GI50 in [1] was > 100 µM (inactive); in experiment [19], > 100 µM (inactive); in [2], > 100 µM (inactive); in [3] it was greater than 100 µM; in experiment [4], > 100 µM (inactive); in [5] it was > 100 µM (inactive). Moreover, the GI50 in experiment [6], in experiment [7], in experiment [8], in experiment [9], in experiment [11] and in [20] was > 100 µM (inactive) throughout. Also, the GI50 in [12], in experiment [14], in experiment [15], in experiment [16], in experiment [17] and in experiment [18] was > 100 µM (inactive) throughout.

In the case of `CC(=O)N[C@@H](Cc1ccc(O)cn1)C(=O)NC1CCCCC1`, the GI50 in [1] is > 100 µM (inactive); in experiment [19] it was > 100 µM (inactive); in [2], > 100 µM (inactive); in experiment [3] it was greater than 100 µM; in [4] it was > 100 µM (inactive); in experiment [5] it was > 100 µM (inactive). The GI50 in [6] was > 100 µM (inactive); in experiment [7], > 100 µM (inactive); in experiment [8], > 100 µM (inactive); in experiment [9], > 100 µM (inactive); in experiment [10], 30.3 µM (inactive); in experiment [11] it was > 100 µM (inactive). Further, the GI50 in experiment [20], in experiment [12], in experiment [13], in [14], in experiment [15] and in experiment [16] was > 100 µM (inactive) each time. Further, the GI50 in [18] was > 100 µM (inactive).

As for `C=CCCCC1SC2=C(CC)CCCN2C1=O` (stereo unspecified), the GI50 was 47.9 µM (inactive) in [1]; 90.4 µM (inactive) in experiment [19]; 84.3 µM (inactive) in experiment [2]; 40.2 µM in experiment [3]; > 100 µM (inactive) in experiment [4]; 54 µM (inactive) in experiment [5]. In addition, the GI50 is 45.2 µM (inactive) in experiment [6]; > 100 µM (inactive) in experiment [7]; > 100 µM (inactive) in experiment [8]; > 100 µM (inactive) in [9]; 35.1 µM (inactive) in experiment [10]; 86.7 µM (inactive) in experiment [11]. Besides, the GI50 in experiment [20] was 36.9 µM (inactive); in [12], > 100 µM (inactive); in experiment [13] it was 78.7 µM (inactive); in [14], 46.3 µM (inactive); in [15], > 100 µM (inactive); in experiment [16], 65.6 µM (inactive). Also, the GI50 in [18] is 77.4 µM (inactive).

With `NCCCCC(NC(=O)C(N)Cc1ccc(O)cn1)C(=O)O` (stereo unspecified), the GI50 was > 100 µM (inactive) in experiment [1]; > 100 µM (inactive) in experiment [19]; > 100 µM (inactive) in experiment [2]; greater than 100 µM in experiment [3]; > 100 µM (inactive) in experiment [4]; > 100 µM (inactive) in experiment [5]. Besides, the GI50 in [6], in experiment [8], in [9], in [10], in experiment [11] and in experiment [20] was > 100 µM (inactive) throughout. Besides, the GI50 in experiment [12], in experiment [13], in experiment [14], in experiment [15], in experiment [16] and in [18] was > 100 µM (inactive) throughout.

`COC1CC(OC2C(C)OC(OC3C(C)OC(OC4C(O)CC(O[C@H]5CC[C@@]6(C)C(=CC[C@]7(O)[C@@H]6C[C@@H](OC(=O)/C=C/c6ccccc6)[C@@]6(C)[C@]7(O)CC[C@@]6(O)C(C)=O)C5)OC4C)CC3OC)CC2OC)OC(C)C1O` (stereo partly specified): the GI50 in [1] is > 6.25 µM (inactive); in [2] it was > 6.25 µM (inactive); in experiment [3], greater than 6.25 µM; in [4], > 6.25 µM (inactive); in experiment [5] it was > 6.25 µM (inactive); in experiment [6], > 6.25 µM (inactive). Further, the GI50 in experiment [7], in [8], in experiment [9], in experiment [10], in [11] and in experiment [20] was > 6.25 µM (inactive) in each case. Further, the GI50 in experiment [12], in experiment [13], in experiment [14], in experiment [15], in experiment [16] and in experiment [17] was > 6.25 µM (inactive) in each case. Further, in [18], the GI50 is > 6.25 µM (inactive).

As to `COC1OC2COC(=O)c3cc(O)c(O)c(O)c3-c3c(cc(O)c(O)c3O)C(=O)OC2C(O)C1O` (stereo unspecified), the GI50 in experiment [1] was > 100 µM (inactive); in [2], > 100 µM (inactive); in experiment [3] it was greater than 100 µM; in experiment [4] it was 16.5 µM (inactive); in [5], 54.1 µM (inactive); in [6] it was > 100 µM (inactive). Further, the GI50 in experiment [7] is > 100 µM (inactive); in experiment [8], 63.8 µM (inactive); in experiment [9], 54.1 µM (inactive); in [10] it was 94.8 µM (inactive); in experiment [11] it was > 100 µM (inactive); in experiment [12], 36.4 µM (inactive). The GI50 was 80 µM (inactive) in experiment [13]; > 100 µM (inactive) in [14]; > 100 µM (inactive) in experiment [15]; 31.5 µM (inactive) in experiment [16]; 62.8 µM (inactive) in experiment [17]; 21.7 µM (inactive) in experiment [18].

For `O=C(O)c1ccc(NNC(=O)c2cccc3c(=O)c4ccccc4[nH]c23)cc1`, the GI50 in experiment [1] is > 100 µM (inactive); in experiment [2] it was > 100 µM (inactive); in [3] it was greater than 100 µM; in experiment [4], > 100 µM (inactive); in experiment [5], > 100 µM (inactive); in [6] it was > 100 µM (inactive). For the same compound, the GI50 in experiment [7] is > 100 µM (inactive); in [8], > 100 µM (inactive); in experiment [9], > 100 µM (inactive); in experiment [10], 25.4 µM (inactive); in experiment [11], > 100 µM (inactive); in experiment [20], 65 µM (inactive). In addition, the GI50 is 58.6 µM (inactive) in experiment [12]; > 100 µM (inactive) in experiment [13]; 85.7 µM (inactive) in experiment [14]; > 100 µM (inactive) in [15]; > 100 µM (inactive) in experiment [16]; > 100 µM (inactive) in experiment [17]. Besides, the GI50 in experiment [18] is > 100 µM (inactive).

On to `CC(=O)Nc1cc(Nc2cc(O)nc(O)n2)ccc1C`, for which the GI50 is > 100 µM (inactive) in [1]; > 100 µM (inactive) in experiment [19]; > 100 µM (inactive) in experiment [2]; greater than 100 µM in experiment [3]; > 100 µM (inactive) in experiment [4]; > 100 µM (inactive) in experiment [5]. Besides, the GI50 in experiment [6], in [9], in experiment [11], in experiment [20], in [12] and in experiment [13] was > 100 µM (inactive) throughout. Further, the GI50 in experiment [14], in experiment [15], in [16], in experiment [17] and in experiment [18] was > 100 µM (inactive) each time.

By GI50 is commonly meant the concentration giving 50% growth inhibition.
